Experimental data published in patent US8802597B2, “Herbicidal pyrimidines” (E I du Pont de Nemours and Company, priority 2003, dated 2014).
Like-named read-outs stand apart in the source and are kept apart here.

Legend:
Format in all cases: in vivo
soybean (Glycine max) = test: Test C pre/postemergence; conditions: for Plant response rating, Soybean: Preemergence, scale 0 to 100, 0 no effect, 100 complete control
In short: (§1)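 Applications: preemergence onto seeded soil and postemergence onto 1- to 4-leaf seedlings, compound carried in non-phytotoxic solvent plus surfactant. Kept in greenhouse 12 to 14 days. Scored visually relative to untreated controls, 0 (no effect) to 100 (complete control).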

[1] = system: lambsquarters (Chenopodium album); test: Test C pre/postemergence; conditions: for pest or weed control at 16 g/ha: 16 g ai/ha; for pest or weed control at 62 g/ha: 62 g ai/ha
In short: as §1

[2] = system: goosegrass (Eleusine indica); test: Test C pre/postemergence; conditions: for pest or weed control at 16 g/ha: 16 g ai/ha
In short: as §1

corn (Zea mays) = test: Test C pre/postemergence; conditions: for Plant response rating, Corn: Preemergence
In short: as §1

[3] = system: barnyardgrass (Echinochloa crus-galli); test: Test A pre/postemergence
In short: (§2)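 Visual injury scored 0–100 (0 = no effect, 100 = complete control) against untreated controls after about ten days in the greenhouse. Compounds, formulated in non-phytotoxic solvent plus surfactant, were applied preemergence as a directed soil spray and postemergence at the 1- to 2-leaf stage (2–10 cm).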

[4] = system: redroot pigweed (Amaranthus retroflexus); test: Test A pre/postemergence
In short: as §2

[5] = system: velvetleaf (Abutilon theophrasti); test: Test A pre/postemergence
In short: as §2

[6] = system: crabgrass (Digitaria sanguinalis); test: Test A pre/postemergence
In short: as §2

[7] = system: giant foxtail (Setaria faberi); test: Test A pre/postemergence
In short: as §2

[8] = system: morningglory (Ipomoea spp.); test: Test A pre/postemergence
In short: as §2

[9] = system: chickweed (Stellaria media); test: Test C postemergence; conditions: Stellaria media, post-emergence
In short: as §1

[10] = Chenopodium album, post-emergence, Postemergence, read-out: Plant response rating (scale of 0 to 100), Lambsquarters
[11] = Chenopodium album, pre-emergence, Preemergence, scale 0 to 100, 0 no effect, 100 complete control, read-out: Plant response rating, Lambsquarters
[12] = Preemergence, 31 g ai/ha, scale 0 to 100, 0 no effect, 100 complete control
[13] = Preemergence, 125 g ai/ha, scale 0 to 100
[14] = Postemergence, 125 g ai/ha, 0 to 100 scale (0 no effect, 100 complete control)
[15] = Postemergence, 500 g ai/ha, 0 to 100 scale (0 no effect, 100 complete control)
[16] = Preemergence, 125 g ai/ha, 0 to 100 scale where 0 is no effect and 100 is complete control, approximately ten days
[17] = Preemergence, 500 g ai/ha, 0 to 100 scale where 0 is no effect and 100 is complete control, approximately ten days

SMILES: Nc1nc(C2CC2)nc(C(=O)O)c1Cl [Compound 135, 6-amino-5-chloro-2-cyclopropyl-4-pyrimidinecarboxylic acid]
- plant injury at 16 g/ha (soybean (Glycine max); Glycine max, post-emergence, Postemergence, 16 g ai/ha, read-out: Plant response rating (scale of 0 to 100), Soybean): 100%
- plant injury at 62 g/ha (soybean (Glycine max); Glycine max, post-emergence, Postemergence, 62 g ai/ha, read-out: Plant response rating (scale of 0 to 100), Soybean): 100%
- plant injury at 125 g/ha (soybean (Glycine max); Glycine max, post-emergence, Postemergence, 125 g ai/ha, scale 0 to 100 (0 no effect, 100 complete control), read-out: Soybean plant response rating): 100%
- Plant response rating, Soybean (soybean (Glycine max); 16 g ai/ha): 85
- Plant response rating, Soybean (soybean (Glycine max); 31 g ai/ha): 95
- Plant response rating, Soybean (soybean (Glycine max); 62 g ai/ha): 95
- pest or weed control at 16 g/ha [1, 10]: 60%
- pest or weed control at 31 g/ha ([1]; Chenopodium album, post-emergence, Postemergence, 31 g ai/ha, read-out: Plant response rating (scale of 0 to 100), Lambsquarters): 90%
- pest or weed control at 62 g/ha [1, 10]: 90%
- pest or weed control at 125 g/ha ([1]; Chenopodium album, post-emergence, Postemergence, 125 g ai/ha, scale 0 to 100 (0 no effect, 100 complete control), read-out: Lambsquarters plant response rating): 95%
- pest or weed control at 16 g/ha [1, 11]: 0%
- pest or weed control at 62 g/ha [1, 11]: 70%
- Plant response rating, Lambsquarters [1, 12]: 70
- Plant response rating, Lambsquarters [1, 13]: 90
- pest or weed control at 16 g/ha ([2]; Eleusine indica, post-emergence, Postemergence, read-out: Plant response rating (scale of 0 to 100), Goosegrass): 5%
- pest or weed control at 31 g/ha ([2]; Eleusine indica, post-emergence, Postemergence, 31 g ai/ha, read-out: Plant response rating (scale of 0 to 100), Goosegrass): 35%
- pest or weed control at 62 g/ha ([2]; Eleusine indica, post-emergence, Postemergence, 62 g ai/ha, read-out: Plant response rating (scale of 0 to 100), Goosegrass): 45%
- pest or weed control at 125 g/ha ([2]; Eleusine indica, post-emergence, Postemergence, 125 g ai/ha, scale 0 to 100 (0 no effect, 100 complete control), read-out: Goosegrass plant response rating): 55%
- pest or weed control at 16 g/ha ([2]; Eleusine indica, pre-emergence, Preemergence, scale 0 to 100, 0 no effect, 100 complete control, read-out: Plant response rating, Goosegrass): 0%
- Plant response rating, Goosegrass [2, 12]: 0
- Plant response rating, Goosegrass ([2]; Preemergence, 62 g ai/ha, scale 0 to 100, 0 no effect, 100 complete control): 0
- Plant response rating, Goosegrass [2, 13]: 40
- Plant response rating, Corn (corn (Zea mays); 16 g ai/ha, scale 0 to 100, 0 no effect, 100 complete control): 5
- Plant response rating, Corn (corn (Zea mays); 31 g ai/ha, scale 0 to 100, 0 no effect, 100 complete control): 30
- Plant response rating, Corn (corn (Zea mays); 62 g ai/ha, scale 0 to 100, 0 no effect, 100 complete control): 30
- Plant response rating, Corn (corn (Zea mays); 125 g ai/ha, scale 0 to 100): 70
- Corn plant response rating (crop injury, 0 = no effect, 100 = complete kill) at 16 g/ha (corn (Zea mays); Zea mays, post-emergence, Postemergence, 16 g ai/ha, read-out: Plant response rating (scale of 0 to 100), Corn): 5%
- Corn plant response rating (crop injury, 0 = no effect, 100 = complete kill) at 31 g/ha (corn (Zea mays); Zea mays, post-emergence, Postemergence, 31 g ai/ha, read-out: Plant response rating (scale of 0 to 100), Corn): 10%
- Corn plant response rating (crop injury, 0 = no effect, 100 = complete kill) at 62 g/ha (corn (Zea mays); Zea mays, post-emergence, Postemergence, 62 g ai/ha, read-out: Plant response rating (scale of 0 to 100), Corn): 20%
- Corn plant response rating (crop injury, 0 = no effect, 100 = complete kill) at 125 g/ha (corn (Zea mays); Zea mays, post-emergence, Postemergence, 125 g ai/ha, scale 0 to 100 (0 no effect, 100 complete control), read-out: Corn plant response rating): 35%
- Plant response rating, Barnyardgrass [3, 14]: 75
- Plant response rating, Barnyardgrass [3, 15]: 90
- Plant response rating, Barnyardgrass [3, 16]: 65
- Plant response rating, Barnyardgrass [3, 17]: 90
- Plant response rating, Pigweed [4, 14]: 90
- Plant response rating, Pigweed [4, 15]: 95
- Plant response rating, Pigweed [4, 16]: 85
- Plant response rating, Pigweed [4, 17]: 100
- Plant response rating, Velvetleaf [5, 14]: 85
- Plant response rating, Velvetleaf [5, 15]: 100
- Plant response rating, Velvetleaf [5, 16]: 80
- Plant response rating, Velvetleaf [5, 17]: 100
- Plant response rating, Crabgrass [6, 14]: 65
- Plant response rating, Crabgrass [6, 15]: 65
- Plant response rating, Crabgrass [6, 16]: 75
- Plant response rating, Crabgrass [6, 17]: 95
- Plant response rating, Foxtail, Giant [7, 14]: 75
- Plant response rating, Foxtail, Giant [7, 15]: 80
- Plant response rating, Foxtail, Giant [7, 16]: 30
- Plant response rating, Foxtail, Giant [7, 17]: 85
- Plant response rating, Morningglory [8, 14]: 90
- Plant response rating, Morningglory [8, 15]: 100
- Plant response rating, Morningglory [8, 16]: 95
- Plant response rating, Morningglory [8, 17]: 100
- pest or weed control at 16 g/ha ([9]; 16 g ai/ha, read-out: Plant response rating (scale of 0 to 100), Chickweed): 0%
- pest or weed control at 31 g/ha ([9]; 31 g ai/ha, read-out: Plant response rating (scale of 0 to 100), Chickweed): 15%
- pest or weed control at 62 g/ha ([9]; 62 g ai/ha, read-out: Plant response rating (scale of 0 to 100), Chickweed): 25%
- pest or weed control at 125 g/ha ([9]; 125 g ai/ha, scale 0 to 100 (0 no effect, 100 complete control), read-out: Chickweed plant response rating): 85%
